Experiments:
Assay in all cases: Antimicrobial activity in formulation: colony counts over 28 days, synergy by Kull equation
Settings in all cases: for Relative colony counts: relative to day 0; for Colony counts: counts <10 set to 10
[1] = tested on: S. aureus; format: cell-based, Staphylococcus aureus
From the text: (§1) Synergistic antimicrobial activity of lactate esters and other flavor and fragrance ingredients against different microorganisms relevant for cosmetics were investigated.
(§2) To calculate the synergism between lactate esters and other flavor and fragrance ingredients, the Kull equation^1,2 was used ^1 Kull, F. C., Eismann, P. C., Sylvestrowicz, H. D., and R. L. Mayer (1961). Mixtures of Quaternary Ammonium Compounds and Long-chain Fatty Acids as Antifungal Agents. Applied Microbiology 9, 538-541.^2 Steinberg, D. C. (2000). Measuring Synergy. Cosmetics & Toiletries 115 (11), 59-62. SI=(Cmixture×PA)/CA+(Cmixture×PB)/CB where • SI is the Synergy Index according to Kull^1), 2) • CA is the cell count for substance A • CB is the cell count for substance B • Cmixture is the cell count for the mixture of substances A and B • PA is the proportion of the substance A in the mixture • PB is the proportion of the substance B in the mixture.
(§3) Colony counts of <10 were arbitrarily set to 10, in order to allow for synergy calculations with the above equation. The abbreviation “n.a.” means not applicable.

[2] = tested on: A. brasiliensis; format: cell-based, Aspergillus brasiliensis
From the text: Synergistic antimicrobial activity of lactate esters and other flavor and fragrance ingredients against different microorganisms relevant for cosmetics were investigated. To calculate the synergism between lactate esters and other flavor and fragrance ingredients, the Kull equation^1,2 was used ^1 Kull, […]., and R. L. Mayer (1961). Mixtures of Quaternary Ammonium Compounds and Long-chain Fatty Acids as Antifungal Agents. Applied Microbiology 9, 538-541.^2 Steinberg, D. C. (2000). Measuring Synergy. Cosmetics & Toiletries 115 (11), 59-62. SI=(Cmixture×PA)/CA+(Cmixture×PB)/CB where • SI is the Synergy Index according to Kull^1), 2) • CA is the cell count for substance A • CB is the cell count for substance B • Cmixture is the cell count for the mixture of substances A and B • PA is the proportion of the substance A in the mixture • PB is the proportion of the substance B in the mixture. […] The abbreviation “n.a.” means not applicable.

[3] = tested on: E. coli; format: cell-based, Escherichia coli
From the text: as §1, §2, §3

[4] = tested on: C. albicans; format: cell-based, Candida albicans
From the text: as §1, §2, §3

## CCCCCOC(=O)C(C)O (stereo not shown) [AL, amyl lactate]
[1]; 1%, day 0
  Relative colony counts: 1.0000
[1]; 1%, day 2
  Colony counts: 21.000 cfu/g formulation
  Relative colony counts: 0.0072
[1]; 1%, day 7
  Colony counts: 15 cfu/g formulation
  Relative colony counts: 0.0000
[1]; 1%, day 14
  Colony counts: 10 cfu/g formulation
  Relative colony counts: 0.0000
[1]; 1%, day 28
  Colony counts: 10 cfu/g formulation
  Relative colony counts: 0.0000
[2]; 1%, day 0
  Relative colony counts: 1.0000
[2]; 1%, day 2
  Colony counts: 160.000 cfu/g formulation
  Relative colony counts: 0.0552
[2]; 1%, day 7
  Relative colony counts: 0.4828
[2]; 1%, day 14
  Colony counts: 320.000 cfu/g formulation
  Relative colony counts: 0.1103
[2]; 1%, day 28
  Colony counts: 660 cfu/g formulation
  Relative colony counts: 0.0002

## COc1ccc(C(=O)O)cc1 [AAc, p-anisic acid]
[1]; 0.5%, day 0
  Relative colony counts: 1.0000
[1]; 0.5%, day 2
  Relative colony counts: 0.8095
[1]; 0.5%, day 7
  Colony counts: 130 cfu/g formulation
  Relative colony counts: 0.0001
[1]; 0.5%, day 14
  Colony counts: 10 cfu/g formulation
  Relative colony counts: 0.0000
[1]; 0.5%, day 28
  Colony counts: 10 cfu/g formulation
  Relative colony counts: 0.0000
[3]; 0.5%, day 0
  Relative colony counts: 1.0000
[3]; 0.5%, day 2
  Colony counts: 140.000 cfu/g formulation
  Relative colony counts: 0.0609
[3]; 0.5%, day 7
  Colony counts: 15.000 cfu/g formulation
  Relative colony counts: 0.0065
[3]; 0.5%, day 14
  Colony counts: 3.100 cfu/g formulation
  Relative colony counts: 0.0013
[3]; 0.5%, day 28
  Colony counts: 10 cfu/g formulation
  Relative colony counts: 0.0000
[2]; 0.5%, day 0
  Relative colony counts: 1.0000
[2]; 0.5%, day 2
  Relative colony counts: 0.3514
[2]; 0.5%, day 7
  Colony counts: 200.000 cfu/g formulation
  Relative colony counts: 0.0541
[2]; 0.5%, day 14
  Relative colony counts: 0.3243
[2]; 0.5%, day 28
  Relative colony counts: 0.5676

## OCCCc1ccccc1 [PP, 3-phenylpropanol]
[4]; 0.5%, day 0
  Relative colony counts: 1.0000
[4]; 0.5%, day 2
  Relative colony counts: 0.4583
[4]; 0.5%, day 7
  Colony counts: 930.000 cfu/g formulation
  Relative colony counts: 0.3875
[4]; 0.5%, day 14
  Colony counts: 31.000 cfu/g formulation
  Relative colony counts: 0.0129
[4]; 0.5%, day 28
  Colony counts: 10 cfu/g formulation
  Relative colony counts: 0.0000
[1]; 0.5%, day 0
  Relative colony counts: 1.0000
[1]; 0.5%, day 2
  Colony counts: 23.000 cfu/g formulation
  Relative colony counts: 0.0079
[1]; 0.5%, day 7
  Colony counts: 80 cfu/g formulation
  Relative colony counts: 0.0000
[1]; 0.5%, day 14
  Colony counts: 10 cfu/g formulation
  Relative colony counts: 0.0000
[1]; 0.5%, day 28
  Colony counts: 10 cfu/g formulation
  Relative colony counts: 0.0000

## COc1ccc(C=O)cc1 [AAld, p-anisic aldehyde]
[2]; 0.5%, day 0
  Relative colony counts: 1.0000
[2]; 0.5%, day 2
  Colony counts: 560.000 cfu/g formulation
  Relative colony counts: 0.1931
[2]; 0.5%, day 7
  Colony counts: 140.000 cfu/g formulation
  Relative colony counts: 0.0483
[2]; 0.5%, day 14
  Colony counts: 2.100 cfu/g formulation
  Relative colony counts: 0.0007
[2]; 0.5%, day 28
  Colony counts: 15 cfu/g formulation
  Relative colony counts: 0.0000

## CC(O)C(=O)OCc1ccccc1 (stereo not shown) [BL, benzyl lactate]
[1]; 1%, day 0
  Relative colony counts: 1.0000
[1]; 1%, day 2
  Colony counts: 1.600 cfu/g formulation
  Relative colony counts: 0.0006
[1]; 1%, day 7
  Colony counts: 10 cfu/g formulation
  Relative colony counts: 0.0000
[1]; 1%, day 14
  Colony counts: 10 cfu/g formulation
  Relative colony counts: 0.0000
[1]; 1%, day 28
  Colony counts: 10 cfu/g formulation
  Relative colony counts: 0.0000
[2]; 1%, day 0
  Relative colony counts: 1.0000
[2]; 1%, day 2
  Colony counts: 270.000 cfu/g formulation
  Relative colony counts: 0.0931
[2]; 1%, day 7
  Colony counts: 4.500 cfu/g formulation
  Relative colony counts: 0.0016
[2]; 1%, day 14
  Colony counts: 110 cfu/g formulation
  Relative colony counts: 0.0000
[2]; 1%, day 28
  Colony counts: 10 cfu/g formulation
  Relative colony counts: 0.0000

## CCCCOC(=O)C(C)O (stereo not shown) [BuL, butyl lactate]
[4]; 1.25%, day 0
  Relative colony counts: 1.0000
[4]; 1.25%, day 2
  Colony counts: 740.000 cfu/g formulation
  Relative colony counts: 0.3083
[4]; 1.25%, day 7
  Colony counts: 430 cfu/g formulation
  Relative colony counts: 0.0002
[4]; 1.25%, day 14
  Colony counts: 10 cfu/g formulation
  Relative colony counts: 0.0000
[4]; 1.25%, day 28
  Colony counts: 10 cfu/g formulation
  Relative colony counts: 0.0000
[3]; 1.25%, day 0
  Relative colony counts: 1.0000
[3]; 1.25%, day 2
  Colony counts: 13.000 cfu/g formulation
  Relative colony counts: 0.0041
[3]; 1.25%, day 7
  Colony counts: 10 cfu/g formulation
  Relative colony counts: 0.0000
[3]; 1.25%, day 14
  Colony counts: 10 cfu/g formulation
  Relative colony counts: 0.0000
[3]; 1.25%, day 28
  Colony counts: 10 cfu/g formulation
  Relative colony counts: 0.0000
[2]; 1.25%, day 0
  Relative colony counts: 1.0000
[2]; 1.25%, day 2
  Colony counts: 730.000 cfu/g formulation
  Relative colony counts: 0.2517
[2]; 1.25%, day 7
  Relative colony counts: 0.5517
[2]; 1.25%, day 14
  Relative colony counts: 0.3793
[2]; 1.25%, day 28
  Colony counts: 150.000 cfu/g formulation
  Relative colony counts: 0.0517

Reference: patent US10639253B2, “Compositions” (Symrise AG, priority 2014, dated 2020)
